Results: ChEMBL document CHEMBL3991601, “The target landscape of clinical kinase drugs” (Science, 2017)
Calls of active or inactive are those of the source.

Columns and labels:
[1] = molecular target: T1, Cyclin-dependent kinase-like 5 (Homo sapiens, UniProt O76039)
T1 sequence (O76039 whole entry): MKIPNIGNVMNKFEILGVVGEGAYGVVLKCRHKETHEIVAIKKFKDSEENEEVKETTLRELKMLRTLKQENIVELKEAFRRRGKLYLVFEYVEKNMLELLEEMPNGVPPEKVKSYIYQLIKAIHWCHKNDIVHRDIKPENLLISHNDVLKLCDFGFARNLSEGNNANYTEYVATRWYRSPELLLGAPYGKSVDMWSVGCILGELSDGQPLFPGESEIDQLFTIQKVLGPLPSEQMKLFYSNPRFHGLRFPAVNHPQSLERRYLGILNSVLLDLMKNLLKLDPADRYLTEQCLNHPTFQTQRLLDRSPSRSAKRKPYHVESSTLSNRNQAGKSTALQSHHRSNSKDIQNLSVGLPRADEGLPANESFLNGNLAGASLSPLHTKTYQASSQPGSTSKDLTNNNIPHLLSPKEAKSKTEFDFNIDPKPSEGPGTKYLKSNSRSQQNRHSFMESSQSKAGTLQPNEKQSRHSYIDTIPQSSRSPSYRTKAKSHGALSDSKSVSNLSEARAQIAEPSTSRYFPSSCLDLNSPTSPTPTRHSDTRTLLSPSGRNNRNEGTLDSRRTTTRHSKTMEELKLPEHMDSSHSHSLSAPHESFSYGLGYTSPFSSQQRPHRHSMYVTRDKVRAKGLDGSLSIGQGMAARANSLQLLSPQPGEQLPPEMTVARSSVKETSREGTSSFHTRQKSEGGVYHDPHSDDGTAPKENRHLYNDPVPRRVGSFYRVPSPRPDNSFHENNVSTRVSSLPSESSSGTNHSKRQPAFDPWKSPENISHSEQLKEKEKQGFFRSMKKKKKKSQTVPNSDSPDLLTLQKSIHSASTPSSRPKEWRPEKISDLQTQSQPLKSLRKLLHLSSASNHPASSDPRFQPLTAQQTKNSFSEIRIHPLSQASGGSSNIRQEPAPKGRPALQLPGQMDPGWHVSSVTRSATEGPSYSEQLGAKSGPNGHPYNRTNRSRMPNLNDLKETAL

[2] = molecular target: Serine/threonine-protein kinase N3 (Homo sapiens, UniProt Q6P5Z2)
[3] = molecular target: Glycogen synthase kinase-3 beta (Homo sapiens, UniProt P49841)
[4] = molecular target: T2, Isoleucine--tRNA ligase, mitochondrial (Homo sapiens, UniProt Q9NSE4)
T2 sequence (Q9NSE4 whole entry): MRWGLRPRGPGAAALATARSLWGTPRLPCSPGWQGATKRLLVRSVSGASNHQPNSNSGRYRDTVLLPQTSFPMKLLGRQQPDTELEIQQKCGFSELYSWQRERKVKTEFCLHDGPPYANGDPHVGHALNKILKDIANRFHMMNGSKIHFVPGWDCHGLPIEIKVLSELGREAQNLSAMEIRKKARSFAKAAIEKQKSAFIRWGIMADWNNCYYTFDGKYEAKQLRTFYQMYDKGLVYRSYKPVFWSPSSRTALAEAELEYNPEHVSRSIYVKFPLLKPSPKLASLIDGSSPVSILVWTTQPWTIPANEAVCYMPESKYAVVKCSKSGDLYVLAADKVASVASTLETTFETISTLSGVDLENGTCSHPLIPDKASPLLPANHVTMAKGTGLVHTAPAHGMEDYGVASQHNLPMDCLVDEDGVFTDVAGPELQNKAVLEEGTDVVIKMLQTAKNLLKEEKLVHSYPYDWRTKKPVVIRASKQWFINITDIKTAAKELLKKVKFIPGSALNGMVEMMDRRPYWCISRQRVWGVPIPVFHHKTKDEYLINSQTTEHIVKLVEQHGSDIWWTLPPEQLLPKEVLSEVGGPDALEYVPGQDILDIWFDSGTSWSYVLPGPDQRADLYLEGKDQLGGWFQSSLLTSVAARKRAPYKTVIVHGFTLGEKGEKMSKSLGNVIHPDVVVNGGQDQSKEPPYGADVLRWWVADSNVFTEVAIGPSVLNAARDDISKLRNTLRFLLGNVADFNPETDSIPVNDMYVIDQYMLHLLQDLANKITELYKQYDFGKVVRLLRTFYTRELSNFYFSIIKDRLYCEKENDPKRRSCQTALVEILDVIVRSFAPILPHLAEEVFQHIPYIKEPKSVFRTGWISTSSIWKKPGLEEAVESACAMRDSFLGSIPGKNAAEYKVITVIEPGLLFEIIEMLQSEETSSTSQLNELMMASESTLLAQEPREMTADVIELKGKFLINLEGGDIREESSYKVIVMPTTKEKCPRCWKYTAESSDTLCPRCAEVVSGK

[5] = molecular target: Serine/threonine-protein kinase ATR (Homo sapiens, UniProt Q13535)
[6] = molecular target: Phosphatidylethanolamine-binding protein 1 (Homo sapiens, UniProt P30086)
[7] = molecular target: T3, Dual specificity protein kinase TTK (Homo sapiens, UniProt P33981)
T3 sequence (P33981 whole entry): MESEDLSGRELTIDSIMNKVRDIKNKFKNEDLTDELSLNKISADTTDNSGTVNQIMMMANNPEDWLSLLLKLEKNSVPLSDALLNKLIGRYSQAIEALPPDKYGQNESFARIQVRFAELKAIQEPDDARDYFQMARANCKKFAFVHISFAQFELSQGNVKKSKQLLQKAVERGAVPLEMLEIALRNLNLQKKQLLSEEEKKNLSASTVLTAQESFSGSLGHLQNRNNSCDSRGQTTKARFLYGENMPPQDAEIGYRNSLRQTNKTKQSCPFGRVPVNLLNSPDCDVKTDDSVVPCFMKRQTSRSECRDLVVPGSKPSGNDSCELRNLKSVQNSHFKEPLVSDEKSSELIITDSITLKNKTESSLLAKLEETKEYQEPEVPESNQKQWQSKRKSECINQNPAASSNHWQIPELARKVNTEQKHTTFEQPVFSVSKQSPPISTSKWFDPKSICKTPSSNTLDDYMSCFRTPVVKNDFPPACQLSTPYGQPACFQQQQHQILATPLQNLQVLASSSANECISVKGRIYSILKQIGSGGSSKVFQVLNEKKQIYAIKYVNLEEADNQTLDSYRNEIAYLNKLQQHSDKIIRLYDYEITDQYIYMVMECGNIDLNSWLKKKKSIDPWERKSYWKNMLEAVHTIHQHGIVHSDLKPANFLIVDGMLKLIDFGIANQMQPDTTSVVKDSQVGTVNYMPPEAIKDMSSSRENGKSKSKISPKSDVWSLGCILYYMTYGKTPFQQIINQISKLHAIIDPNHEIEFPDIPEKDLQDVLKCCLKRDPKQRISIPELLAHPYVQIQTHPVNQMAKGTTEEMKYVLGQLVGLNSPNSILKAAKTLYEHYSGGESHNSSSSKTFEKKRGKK
Also: in the data inactive means no Kd found up to 30 µM.

Serine/threonine-protein kinase ATR, sequence (Q13535 whole entry): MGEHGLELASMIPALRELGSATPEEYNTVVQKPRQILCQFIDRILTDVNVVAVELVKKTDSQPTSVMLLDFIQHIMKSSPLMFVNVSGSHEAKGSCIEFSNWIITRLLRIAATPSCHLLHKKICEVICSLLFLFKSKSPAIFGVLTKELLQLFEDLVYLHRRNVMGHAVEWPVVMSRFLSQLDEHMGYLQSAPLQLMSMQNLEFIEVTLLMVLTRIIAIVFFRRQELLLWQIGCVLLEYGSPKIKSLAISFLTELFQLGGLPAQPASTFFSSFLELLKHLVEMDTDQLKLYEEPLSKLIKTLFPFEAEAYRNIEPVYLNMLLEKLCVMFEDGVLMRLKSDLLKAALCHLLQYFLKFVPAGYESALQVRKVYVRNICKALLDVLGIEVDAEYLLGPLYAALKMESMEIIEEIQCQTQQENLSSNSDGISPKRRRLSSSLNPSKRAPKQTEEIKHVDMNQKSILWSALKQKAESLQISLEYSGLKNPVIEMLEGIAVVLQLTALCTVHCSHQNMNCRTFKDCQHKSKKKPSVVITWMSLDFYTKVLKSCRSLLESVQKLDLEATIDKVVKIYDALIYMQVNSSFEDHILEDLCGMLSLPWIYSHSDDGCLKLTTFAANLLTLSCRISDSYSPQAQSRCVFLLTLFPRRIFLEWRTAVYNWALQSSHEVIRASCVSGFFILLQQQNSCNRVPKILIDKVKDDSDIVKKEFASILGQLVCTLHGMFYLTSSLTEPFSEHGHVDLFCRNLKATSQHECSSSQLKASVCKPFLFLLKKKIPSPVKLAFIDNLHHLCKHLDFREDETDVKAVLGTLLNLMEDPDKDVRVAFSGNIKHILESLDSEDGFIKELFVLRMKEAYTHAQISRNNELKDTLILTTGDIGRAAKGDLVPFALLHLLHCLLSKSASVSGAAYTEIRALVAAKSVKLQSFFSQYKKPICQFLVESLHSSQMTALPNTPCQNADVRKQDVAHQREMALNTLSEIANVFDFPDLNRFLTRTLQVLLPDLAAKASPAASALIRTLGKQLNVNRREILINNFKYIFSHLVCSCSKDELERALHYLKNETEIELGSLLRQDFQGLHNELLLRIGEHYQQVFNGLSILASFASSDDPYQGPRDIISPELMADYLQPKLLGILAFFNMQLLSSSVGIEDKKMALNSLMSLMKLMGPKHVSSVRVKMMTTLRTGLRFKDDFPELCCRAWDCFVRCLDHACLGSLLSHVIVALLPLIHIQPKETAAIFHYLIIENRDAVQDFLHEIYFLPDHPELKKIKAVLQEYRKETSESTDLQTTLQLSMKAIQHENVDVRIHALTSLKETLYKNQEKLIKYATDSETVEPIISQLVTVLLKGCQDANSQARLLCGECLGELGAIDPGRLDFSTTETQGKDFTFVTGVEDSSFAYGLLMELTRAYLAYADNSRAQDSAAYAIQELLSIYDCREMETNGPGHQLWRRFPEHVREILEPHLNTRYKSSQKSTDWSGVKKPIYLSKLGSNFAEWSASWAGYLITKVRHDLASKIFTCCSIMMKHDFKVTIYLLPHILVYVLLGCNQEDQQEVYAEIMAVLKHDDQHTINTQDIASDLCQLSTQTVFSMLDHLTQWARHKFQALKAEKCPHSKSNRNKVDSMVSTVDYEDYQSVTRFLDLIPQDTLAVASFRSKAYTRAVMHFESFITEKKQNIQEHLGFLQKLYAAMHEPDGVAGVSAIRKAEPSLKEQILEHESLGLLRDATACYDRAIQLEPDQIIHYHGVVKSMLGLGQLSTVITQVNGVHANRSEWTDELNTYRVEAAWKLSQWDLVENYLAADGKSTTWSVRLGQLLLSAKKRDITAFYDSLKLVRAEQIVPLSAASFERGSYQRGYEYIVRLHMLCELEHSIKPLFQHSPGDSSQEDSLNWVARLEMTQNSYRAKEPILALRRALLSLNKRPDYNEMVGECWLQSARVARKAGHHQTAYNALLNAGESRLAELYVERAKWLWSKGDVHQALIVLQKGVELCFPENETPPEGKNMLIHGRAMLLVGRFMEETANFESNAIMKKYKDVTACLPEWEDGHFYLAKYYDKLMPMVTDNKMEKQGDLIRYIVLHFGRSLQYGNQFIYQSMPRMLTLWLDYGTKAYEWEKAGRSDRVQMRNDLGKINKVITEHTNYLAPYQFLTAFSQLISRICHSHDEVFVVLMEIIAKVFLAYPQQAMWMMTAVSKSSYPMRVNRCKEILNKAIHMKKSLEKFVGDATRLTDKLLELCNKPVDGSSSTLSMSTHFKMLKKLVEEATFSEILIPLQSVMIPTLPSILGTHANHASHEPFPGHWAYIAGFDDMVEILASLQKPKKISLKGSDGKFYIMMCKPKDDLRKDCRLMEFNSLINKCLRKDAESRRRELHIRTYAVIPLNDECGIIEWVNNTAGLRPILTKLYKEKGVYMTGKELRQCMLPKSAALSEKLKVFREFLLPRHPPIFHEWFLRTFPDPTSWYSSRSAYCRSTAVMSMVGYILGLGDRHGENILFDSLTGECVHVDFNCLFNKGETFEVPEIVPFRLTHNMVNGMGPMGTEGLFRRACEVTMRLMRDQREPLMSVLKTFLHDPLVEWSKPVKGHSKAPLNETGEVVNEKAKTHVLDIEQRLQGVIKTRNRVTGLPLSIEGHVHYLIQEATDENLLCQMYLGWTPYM
Glycogen synthase kinase-3 beta, sequence (P49841 whole entry): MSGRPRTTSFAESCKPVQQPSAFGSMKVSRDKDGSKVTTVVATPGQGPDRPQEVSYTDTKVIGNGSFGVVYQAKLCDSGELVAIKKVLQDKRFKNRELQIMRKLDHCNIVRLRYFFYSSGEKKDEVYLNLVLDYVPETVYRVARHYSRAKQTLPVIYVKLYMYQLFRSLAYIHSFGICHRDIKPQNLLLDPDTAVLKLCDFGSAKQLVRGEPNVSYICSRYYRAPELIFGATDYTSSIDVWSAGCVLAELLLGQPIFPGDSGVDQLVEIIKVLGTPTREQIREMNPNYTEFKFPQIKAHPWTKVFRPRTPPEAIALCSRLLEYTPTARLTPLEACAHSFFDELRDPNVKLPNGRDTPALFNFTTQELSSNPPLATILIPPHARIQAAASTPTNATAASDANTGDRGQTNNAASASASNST
Serine/threonine-protein kinase N3, sequence (Q6P5Z2 whole entry): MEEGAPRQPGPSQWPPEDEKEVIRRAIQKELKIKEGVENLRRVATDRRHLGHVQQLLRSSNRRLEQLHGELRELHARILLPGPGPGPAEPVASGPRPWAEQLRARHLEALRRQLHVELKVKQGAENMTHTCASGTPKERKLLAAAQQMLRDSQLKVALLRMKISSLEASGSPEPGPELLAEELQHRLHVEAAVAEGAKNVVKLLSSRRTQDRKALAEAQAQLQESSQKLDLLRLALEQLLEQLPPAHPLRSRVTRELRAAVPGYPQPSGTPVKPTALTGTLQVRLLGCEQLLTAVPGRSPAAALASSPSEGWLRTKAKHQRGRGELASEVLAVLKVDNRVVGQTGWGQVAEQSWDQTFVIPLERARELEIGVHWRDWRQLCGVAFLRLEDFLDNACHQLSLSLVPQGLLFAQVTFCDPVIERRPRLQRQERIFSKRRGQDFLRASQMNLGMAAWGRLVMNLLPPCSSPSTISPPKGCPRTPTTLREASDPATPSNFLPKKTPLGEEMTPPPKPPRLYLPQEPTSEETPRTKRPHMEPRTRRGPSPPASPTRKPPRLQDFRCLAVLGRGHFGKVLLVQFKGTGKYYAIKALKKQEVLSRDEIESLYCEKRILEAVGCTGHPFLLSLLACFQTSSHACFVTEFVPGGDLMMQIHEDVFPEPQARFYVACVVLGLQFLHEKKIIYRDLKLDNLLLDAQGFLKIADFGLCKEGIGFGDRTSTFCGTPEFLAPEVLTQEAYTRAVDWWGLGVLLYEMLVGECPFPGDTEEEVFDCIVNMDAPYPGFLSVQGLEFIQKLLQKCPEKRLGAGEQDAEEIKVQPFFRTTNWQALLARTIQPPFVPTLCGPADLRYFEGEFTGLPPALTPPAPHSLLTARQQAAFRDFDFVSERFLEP
Phosphatidylethanolamine-binding protein 1, sequence (P30086 whole entry): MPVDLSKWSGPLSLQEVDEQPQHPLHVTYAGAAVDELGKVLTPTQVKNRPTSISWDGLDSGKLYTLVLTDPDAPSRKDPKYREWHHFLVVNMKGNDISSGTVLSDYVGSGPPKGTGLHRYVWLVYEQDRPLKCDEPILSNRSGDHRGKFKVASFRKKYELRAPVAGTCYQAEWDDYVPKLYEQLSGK

| Compound | Kd [1] | Kd [2] | Kd [3] | Kd [4] | Kd [5] | Kd [6] | Kd [7] |
| --- | --- | --- | --- | --- | --- | --- | --- |
| Cn1cc(-c2[nH]c3cc(NC(=O)[C@H](N)C4CCCCC4)cc4c3c2C=NNC4=O)cn1 | > 30 µM (inactive) | > 30 µM (inactive) | > 30 µM (inactive) | > 30 µM (inactive) | > 30 µM (inactive) | > 30 µM (inactive) | > 30 µM (inactive) |
| CCN1CCN(Cc2ccc(Nc3ncc(F)c(-c4cc(F)c5nc(C)n(C(C)C)c5c4)n3)nc2)CC1 [ABEMACICLIB] | > 30 µM (inactive) | > 30 µM (inactive) |  | > 30 µM (inactive) | > 30 µM (inactive) |  | > 30 µM (inactive) |
| C=CCn1c(=O)c2cnc(Nc3ccc(N4CCN(C)CC4)cc3)nc2n1-c1cccc(C(C)(C)O)n1 [ADAVOSERTIB] | > 30 µM (inactive) | > 30 µM (inactive) |  | > 30 µM (inactive) | > 30 µM (inactive) | > 30 µM (inactive) | > 30 µM (inactive) |
| Cn1c(=O)n(-c2ccc(C(C)(C)C#N)cc2)c2c3cc(-c4cnc5ccccc5c4)ccc3ncc21 [DACTOLISIB] |  | > 30 µM (inactive) |  | > 30 µM (inactive) | > 30 µM (inactive) | > 30 µM (inactive) | > 30 µM (inactive) |
| COc1cc(Nc2ncc(F)c(Nc3ccc4c(n3)N(COP(=O)(O)O)C(=O)C(C)(C)O4)n2)cc(OC)c1OC [FOSTAMATINIB] | > 30 µM (inactive) |  | > 30 µM (inactive) | > 30 µM (inactive) | > 30 µM (inactive) | > 30 µM (inactive) | > 30 µM (inactive) |
| Cc1ccc(C(=O)Nc2ccc(Oc3cc4cnn(C)c4cc3-c3cn[nH]c3)c(F)c2)c(=O)n1-c1ccc(F)cc1 [MERESTINIB] |  | > 30 µM (inactive) | > 30 µM (inactive) | > 30 µM (inactive) | > 30 µM (inactive) | > 30 µM (inactive) | > 30 µM (inactive) |
| O=C(Nc1ccc(OC(F)(F)F)cc1)c1sccc1NCc1ccnc2ccccc12 [OSI-930] | > 30 µM (inactive) | > 30 µM (inactive) | > 30 µM (inactive) | > 30 µM (inactive) | > 30 µM (inactive) |  | > 30 µM (inactive) |
| CN1CCN(c2nc(C3=C(c4c[nH]c5ccccc45)C(=O)NC3=O)c3ccccc3n2)CC1 [SOTRASTAURIN] | > 30 µM (inactive) | > 30 µM (inactive) | 0.709 µM (active) | > 30 µM (inactive) | > 30 µM (inactive) |  | > 30 µM (inactive) |
| O[C@H]1CC[C@H](Nc2ncc3nc(Nc4c(F)cc(F)cc4F)n([C@H]4CCOC4)c3n2)CC1 [TANZISERTIB] | > 30 µM (inactive) | > 30 µM (inactive) | > 30 µM (inactive) | > 30 µM (inactive) | > 30 µM (inactive) | > 30 µM (inactive) | > 30 µM (inactive) |
| CNC(=O)c1cccc(-c2ccc3c(N4CCOC[C@@H]4C)nc(N4CCOC[C@@H]4C)nc3n2)c1 [VISTUSERTIB] | > 30 µM (inactive) | > 30 µM (inactive) | > 30 µM (inactive) | > 30 µM (inactive) | > 30 µM (inactive) | > 30 µM (inactive) | > 30 µM (inactive) |
